The text below walks through data of patent US20250326767A1, “NOVEL BENZOTHIAZOLE DERIVATIVES” (CARNA BIOSCIENCES, INC., priority 2021, published 2025).

As a reminder, the IC50 is the point on the concentration scale where inhibition reaches its midpoint.

Test in all cases: Inhibition test on activity of DYRK family, mobility shift assay (MSA)
Common to all, as to format: biochemical

One test has as its target T1, DYRK3 (Homo sapiens, UniProt O43781).
T1 construct: purchased Carna Biosciences, Inc. 04-133
T1 sequence (O43781 1-588): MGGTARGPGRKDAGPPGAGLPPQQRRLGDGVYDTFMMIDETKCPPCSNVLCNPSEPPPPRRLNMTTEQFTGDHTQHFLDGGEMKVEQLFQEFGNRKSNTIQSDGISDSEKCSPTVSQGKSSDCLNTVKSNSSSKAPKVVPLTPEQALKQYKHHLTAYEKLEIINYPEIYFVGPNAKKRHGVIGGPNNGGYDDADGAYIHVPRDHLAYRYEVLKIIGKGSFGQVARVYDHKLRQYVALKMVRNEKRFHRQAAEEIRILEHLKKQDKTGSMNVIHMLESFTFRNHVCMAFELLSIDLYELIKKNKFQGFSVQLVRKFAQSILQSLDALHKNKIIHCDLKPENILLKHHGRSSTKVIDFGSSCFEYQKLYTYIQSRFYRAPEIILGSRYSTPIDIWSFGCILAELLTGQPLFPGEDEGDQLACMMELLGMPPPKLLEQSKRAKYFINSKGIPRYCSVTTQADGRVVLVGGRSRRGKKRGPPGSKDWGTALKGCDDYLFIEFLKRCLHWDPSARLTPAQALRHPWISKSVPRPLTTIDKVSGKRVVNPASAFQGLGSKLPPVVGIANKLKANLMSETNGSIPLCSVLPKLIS
As to conditions: ATP 20 μM; FITC-labeled DYRKtide peptide substrate; room temperature 1 hour; read-out: Inhibitory Activity DYRK3 (IC50 class). On the procedure: (§1) The kinase activity was measured by mobility shift assay (MSA) method using QuickScout Screening Assist™ MSA (commercially available kit manufactured by Carna Biosciences, Inc.). The substrate of the kinase reaction used was an FITC-labeled DYRKtide peptide included in the kit. An assay buffer [20 mM HEPES, 0.01% Triton X-100™, 2 mM dithiothreitol, pH 7.5] was used to create a substrate mixture solution with a substrate (4 μM), MgCl2 (20 mM), and ATP (DYRK1A: 100 μM; DYRKIB: 200 μM; DYRK2:40 μM; and DYRK3:20 μM). In addition, kinases (DYRK1A: manufactured by Carna Biosciences, Inc., Cat. No. 04-130; DYRK1B: manufactured by Carna Biosciences, Inc., Cat. No. 04-131; DYRK2; manufactured by Carna Biosciences, Inc., Cat. No. 04-132; and DYRK3; manufactured by Carna Biosciences, Inc., Cat. No. 04-133) were diluted with the assay buffer to prepare enzyme solutions (DYRK1A: 0.2 ng/μL; DYRK1B: 0.08 ng/μL; DYRK2: 0.04 ng/μL; and DYRK3:0.25 ng/μL). The 10 mM solution of the test compound in DMSO was further diluted with DMSO to 10 levels of the concentration (0.00003 mM, 0.0001 mM, 0.0003 mM, 0.001 mM, 0.003 mM, 0.01 mM, 0.03 mM, 0.1 mM, 0.3 mM, and 1 mM), each of which was subjected to 25-fold dilution with the assay buffer to obtain a drug solution (4% DMSO solution). 5 μL of the drug solution or a control solution (4% DMSO-assay buffer), 5 μL of the substrate mixture solution, and 10 μL of the enzyme solution were mixed in the wells of a polypropylene 384-well plate and allowed to react at room temperature for 1 hour, and then the reaction was quenched by adding 60 μL of the termination buffer included in the kit. Subsequently, the quantities of the substrates(S) and the phosphorylated substrate (P) in the reaction solution were measured using LabChip EZ Reader II system (manufactured by Caliper Life Sciences) according to the protocol of the assay kit.
(§2) The heights of the peaks of the “substrate” and the “phosphorylated substrate” were expressed as S and P, respectively, and a blank containing the assay buffer instead of the enzyme solution was also measured.
(§3) The inhibition rate (%) of the test compound was calculated according to the following equation: […]
(§4) wherein, A, B, and C represent P/(P+S) of the blank well, P/(P+S) of the control solution well, and P/(P+S) of the compound-containing well, respectively.
(§5) The IC50 value was calculated via a regression analysis of the inhibition rate and the test compound concentration (logarithmic value).

The target in the next test is T2, DYRK2 (Homo sapiens, UniProt Q92630).
T2 construct: purchased Carna Biosciences, Inc. 04-132
T2 sequence (Q92630 1-601): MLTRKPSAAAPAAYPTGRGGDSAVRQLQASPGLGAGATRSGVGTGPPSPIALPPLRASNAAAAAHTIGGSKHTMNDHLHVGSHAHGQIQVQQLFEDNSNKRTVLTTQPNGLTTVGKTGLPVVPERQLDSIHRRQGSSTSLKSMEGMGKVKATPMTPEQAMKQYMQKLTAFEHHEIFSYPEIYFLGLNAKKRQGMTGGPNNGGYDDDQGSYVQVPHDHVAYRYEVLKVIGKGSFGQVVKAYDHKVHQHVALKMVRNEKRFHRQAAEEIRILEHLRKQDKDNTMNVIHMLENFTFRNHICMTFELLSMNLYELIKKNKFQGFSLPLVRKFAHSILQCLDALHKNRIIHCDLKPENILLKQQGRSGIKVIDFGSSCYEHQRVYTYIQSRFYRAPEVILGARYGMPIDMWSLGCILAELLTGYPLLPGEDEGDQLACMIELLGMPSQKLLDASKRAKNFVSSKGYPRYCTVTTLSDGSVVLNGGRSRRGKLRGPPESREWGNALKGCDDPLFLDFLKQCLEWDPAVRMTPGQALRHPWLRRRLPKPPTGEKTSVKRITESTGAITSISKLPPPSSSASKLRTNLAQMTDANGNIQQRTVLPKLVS
As to conditions: ATP 40 μM; FITC-labeled DYRKtide peptide substrate; room temperature 1 hour; read-out: Inhibitory Activity DYRK2 (IC50 class). On the procedure: as §1, §2, §3, §4, §5

A further test has as its target T3, DYRK1B (Homo sapiens, UniProt Q9Y463).
T3 construct: purchased Carna Biosciences, Inc. 04-131
Conditions: ATP 200 μM; FITC-labeled DYRKtide peptide substrate; room temperature 1 hour; read-out: Inhibitory Activity DYRK1B (IC50 class). On the procedure:
as §1, §2, §3, §4, §5

A further test concerns the target T4, DYRK1A (Homo sapiens, UniProt Q13627).
T4 construct: purchased Carna Biosciences, Inc. 04-130
Conditions: ATP 100 μM; FITC-labeled DYRKtide peptide substrate; room temperature 1 hour; read-out: Inhibitory Activity DYRK1A (IC50 class). As to the method:
as §1, §2, §3, §4, §5

T3 sequence (Q9Y463 whole entry): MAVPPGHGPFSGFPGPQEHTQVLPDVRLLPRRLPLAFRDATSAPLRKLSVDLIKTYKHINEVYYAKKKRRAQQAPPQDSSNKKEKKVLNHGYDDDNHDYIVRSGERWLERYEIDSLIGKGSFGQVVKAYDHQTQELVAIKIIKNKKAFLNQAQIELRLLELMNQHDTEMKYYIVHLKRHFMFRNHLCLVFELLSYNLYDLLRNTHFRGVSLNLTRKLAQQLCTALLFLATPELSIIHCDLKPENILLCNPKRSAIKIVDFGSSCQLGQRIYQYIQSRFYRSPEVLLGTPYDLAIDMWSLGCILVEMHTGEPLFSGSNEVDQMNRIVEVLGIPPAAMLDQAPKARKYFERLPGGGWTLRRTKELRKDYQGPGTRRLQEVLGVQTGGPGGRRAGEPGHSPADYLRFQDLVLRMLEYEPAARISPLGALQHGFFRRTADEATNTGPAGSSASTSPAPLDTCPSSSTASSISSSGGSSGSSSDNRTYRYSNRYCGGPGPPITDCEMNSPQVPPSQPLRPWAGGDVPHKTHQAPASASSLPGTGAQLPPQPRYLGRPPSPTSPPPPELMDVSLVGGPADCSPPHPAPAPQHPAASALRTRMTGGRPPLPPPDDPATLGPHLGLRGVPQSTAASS

Consider `CC#CC1CCNC(=O)N1c1nc2c3c(ccc2s1)OCCO3` (single isomer, unassigned) [Example 5, 1-(7,8-dihydro-[1,4]dioxyno[2′,3′:5,6]benzo[1,2-d]thiazol-2-yl)-6-(prop-1-yn-1-yl)tetrahydropyrimidin-2(1H)-one], for which the IC50 is 0.1 to 1 µM on DYRK3, 0.1 to 1 µM on DYRK2, less than 0.01 µM on DYRK1B and less than 0.01 µM at DYRK1A.

Regarding `CC#CC1N(c2nc3c4c(ccc3s2)OCCO4)C(=O)NC12CC2` (single isomer, unassigned) [Example 7, 6-(7,8-dihydro-[1,4]dioxyno[2′,3′:5,6]benzo[1,2-d]thiazol-2-yl)-7-(prop-1-yn-1-yl)-4,6-diazaspiro[2.4]heptan-5-one], the values for the concentration for half-maximal inhibition (IC50) at DYRK3, at DYRK2 and at DYRK1B were 0.1 to 1 µM, 0.1 to 1 µM and less than 0.01 µM, respectively.

For the compound `CC#CC1N(c2nc3c4c(ccc3s2)OCC4)C(=O)NC12CC2` (single isomer, unassigned) [Example 18, 6-(7,8-dihydrobenzofuro[4,5-d]thiazol-2-yl)-7-(prop-1-yn-1-yl)-4,6-diazaspiro[2.4]heptan-5-one], the values for the IC50 on DYRK3, on DYRK2 and at DYRK1A were 0.01 to 0.1 µM, 0.1 to 1 µM and less than 0.01 µM, respectively.

Take `CC#CC1N(c2nc3c4c(ccc3s2)OCC4)C(=O)NC12CC2` (single isomer, unassigned) [Example 19, 6-(7,8-dihydrobenzofuro[4,5-d]thiazol-2-yl)-7-(prop-1-yn-1-yl)-4,6-diazaspiro[2.4]heptan-5-one]: the IC50 at DYRK3, at DYRK2 and at DYRK1A was more than 1 µM throughout.

As to `CC#CC1N(c2nc3c4c(ccc3s2)OCC4)C(=O)NC12CCC2` (single isomer, unassigned) [Example 20, 7-(7,8-dihydrobenzofuro[4,5-d]thiazol-2-yl)-8-(prop-1-yn-1-yl)-5,7-diazaspiro[3.4]octan-6-one], the IC50 on DYRK3 was 0.1 to 1 µM; on DYRK2 it was more than 1 µM; on DYRK1A, less than 0.01 µM.

Take `CC#CC1N(c2nc3c4c(ccc3s2)OCC4)C(=O)NC12CCC2` (single isomer, unassigned) [Example 21, 7-(7,8-dihydrobenzofuro[4,5-d]thiazol-2-yl)-8-(prop-1-yn-1-yl)-5,7-diazaspiro[3.4]octan-6-one]: the IC50 is more than 1 µM on DYRK3, more than 1 µM on DYRK2 and 0.1 to 1 µM at DYRK1A.

Turning to `CC#C[C@H]1[C@@H](C)CNC(=O)N1c1nc2c3c(ccc2s1)OCC3` (stereo in doubt) [Example 12, (5S*,6R*)-1-(7,8-dihydrobenzofuro[4,5-d]thiazol-2-yl)-5-methyl-6-(prop-1-yn-1-yl)tetrahydropyrimidin-2(1H)-one], the IC50 is more than 1 µM on DYRK3, more than 1 µM at DYRK2 and 0.1 to 1 µM on DYRK1B.

Consider `CC#C[C@H]1[C@H](C)CNC(=O)N1c1nc2c3c(ccc2s1)OCC3` (stereo in doubt) [Example 13, (5R*,6R*)-1-(7,8-dihydrobenzofuro[4,5-d]thiazol-2-yl)-5-methyl-6-(prop-1-yn-1-yl)tetrahydropyrimidin-2(1H)-one], for which the IC50 on DYRK3, on DYRK2 and at DYRK1B was more than 1 µM each time.

Regarding `CC#CC1C[C@H](C)NC(=O)N1c1nc2c3c(ccc2s1)OCC3` (stereo in doubt) [Example 16, (4S,6S)-1-(7,8-dihydrobenzofuro[4,5-d]thiazol-2-yl)-4-methyl-6-(prop-1-yn-1-yl)tetrahydropyrimidin-2(1H)-one], the IC50 at DYRK3, at DYRK2, at DYRK1B and on DYRK1A was more than 1 µM throughout.

Regarding `CC#CC1C[C@H](C)NC(=O)N1c1nc2c3c(ccc2s1)OCC3` (stereo in doubt) [Example 17, (4S,6R)-1-(7,8-dihydrobenzofuro[4,5-d]thiazol-2-yl)-4-methyl-6-(prop-1-yn-1-yl)tetrahydropyrimidin-2(1H)-one], the IC50 on DYRK3 is more than 1 µM; at DYRK2, more than 1 µM; on DYRK1B it was 0.01 to 0.1 µM; on DYRK1A it was 0.01 to 0.1 µM.

As for `CC#C[C@H]1C[C@@H](C)NC(=O)N1c1nc2c3c(ccc2s1)OCC3` [Example 14, (4R,6R)-1-(7,8-dihydrobenzofuro[4,5-d]thiazol-2-yl)-4-methyl-6-(prop-1-yn-1-yl)tetrahydropyrimidin-2(1H)-one], the IC50 on DYRK3, at DYRK2, on DYRK1B and at DYRK1A was more than 1 µM throughout.

With `CC#C[C@@H]1C[C@@H](C)NC(=O)N1c1nc2c3c(ccc2s1)OCC3` [Example 15, (4R,6S)-1-(7,8-dihydrobenzofuro[4,5-d]thiazol-2-yl)-4-methyl-6-(prop-1-yn-1-yl)tetrahydropyrimidin-2(1H)-one], the IC50 was more than 1 µM on DYRK3, more than 1 µM at DYRK2, 0.01 to 0.1 µM at DYRK1B and 0.01 to 0.1 µM at DYRK1A.
